In patent US8586611B2 (priority 2005, dated 2013):

What was measured:
Format in all cases: in vivo
[1] = tested on: Pseudoperonospora cubensis; experiment: Test A: cucumber downy mildew, spray the day before inoculation (disease rating, 100 = 100% disease control)
Text: The test compounds were first dissolved in acetone in an amount equal to 3% of the final volume and then suspended at the desired concentration (in ppm) in acetone and purified water (50/50 mix by volume) containing 250 ppm of the surfactant Trem® 014 (polyhydric alcohol esters). The resulting test suspensions were then used in tests A-E. Spraying a 200 ppm test suspension to the point of run-off on the test plants was the equivalent of a rate of 500 g/ha.
The test suspension was sprayed to the point of run-off on cucumber seedlings. The following day the seedlings were inoculated with a spore suspension of Pseudoperonospora cubensis (the causal agent of cucumber downy mildew) and incubated in a saturated atmosphere at 20° C. for 24 h, and then moved to a growth chamber at 20° C. for 6 days, after which disease ratings were made.
Results for Tests A-F are given in Table A. In the table, a rating of 100 indicates 100% disease control and a rating of 0 indicates no disease control (relative to the controls). A dash (-) indicates no test results.

[2] = tested on: Plasmopara viticola; experiment: Test B: grape downy mildew, spray 24 h after inoculation (disease rating, 100 = 100% disease control)
Summary of the method: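 This is a curative spray test, applied 24 h after inoculation. Compounds in 50/50 acetone–water with 250 ppm Trem 014 surfactant were sprayed to run-off on P. viticola-infected seedlings, with 200 ppm equating to 500 g/ha. Plants were kept 5 days in a 20 °C growth chamber, then 24 h humid, and scored 0–100 for disease control relative to controls.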

[3] = tested on: Phytophthora infestans; experiment: whole plant or invertebrate; details: tomato late blight
[4] = tested on: Erysiphe graminis f. sp. tritici; experiment: Test E: wheat powdery mildew, spray the day before inoculation (disease rating, 100 = 100% disease control)
Summary of the method: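 Protective test: spores of E. graminis f. sp. tritici dusted on wheat seedlings one day after run-off spraying of test suspension (acetone/water with 250 ppm surfactant; 200 ppm = 500 g/ha). Ratings after 7 days in growth chamber at 20° C, 100 = full control, 0 = none, relative to controls.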

[5] = tested on: Pseudoperonospora cubensis; experiment: Test F: cucumber downy mildew, DMSO/acetone/water test suspension, spray the day before inoculation (disease rating, 100 = 100% disease control)
Summary of the method: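 Cucumber seedlings inoculated with spores one day after spraying with the test suspension (4% DMSO in acetone/water 30/70; 250 ppm ≈ 250 g/ha). Kept 24 h in saturated air, then 6 days in a growth chamber, both at 20° C. Scored as % disease control versus untreated (100 = full control).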

[6] = spray the day before inoculation, compounds without asterisk (not 40 or 10 ppm)
[7] = spray 24 h after inoculation, compounds without asterisk (not 40 or 10 ppm)
[8] = DMSO/acetone/water suspension, spray the day before inoculation, compounds without asterisk
[9] = sprayed the day before inoculation, unmarked compounds (no asterisk, not 40 or 10 ppm)
[10] = sprayed 24 h after inoculation, unmarked compounds (no asterisk, not 40 or 10 ppm)
[11] = sprayed the day before inoculation, 7 days at 20° C., unmarked compounds (no asterisk, not 40 or 10 ppm)
[12] = DMSO/acetone/water test suspension, sprayed the day before inoculation, unmarked compounds (no asterisk)

Row | Molecule | Test A disease rating (100 = 100% disease control, 0 = no disease control) [1, 6] [%] | Test B disease rating (100 = 100% disease control, 0 = no disease control) [2, 7] [%] | Test C disease rating (100 = 100% disease control, 0 = no disease control) [3, 6] [%] | Test E disease rating (100 = 100% disease control, 0 = no disease control) [4, 6] [%] | Test F disease rating (100 = 100% disease control, 0 = no disease control) [5, 8] [%] | Test A disease rating (100 = 100% disease control, 0 = no disease control) [1, 9] | Test B disease rating (100 = 100% disease control, 0 = no disease control) [2, 10] | Test C disease rating (100 = 100% disease control, 0 = no disease control) [3, 9] | Test E disease rating (100 = 100% disease control, 0 = no disease control) [4, 11] | Test F disease rating (100 = 100% disease control, 0 = no disease control) [5, 12]
1 | N-methyl-2-[1-[[5-methyl-3-(trifluoromethyl)-1H-pyrazol-1-yl]acetyl]-4-piperidinyl]-N-[(1R)-1-phenylpropyl]-4-thiazolecarboxamide [Compound 117] | 100 | 67 | 96 | 50 | 86 | – | – | – | – | –
2 | N-methyl-2-[1-[[5-methyl-3-(trifluoromethyl)-1H-pyrazol-1-yl]acetyl]-4-piperidinyl]-N-[(1R)-1,2,3,4-tetrahydro-1-naphthalenyl]-4-thiazolecarbothioamide [Compound 289] | 100 | 33 | 98 | 0 | 47 | – | – | – | – | –
3 | Cc1ccccc1CC(=O)N1CCC(c2nc(C(=O)N(C)[C@H](C)c3ccccc3)cs2)CC1 [Compound 11] | 0 | 31 | 91 | 0 | 97 | – | – | – | – | –
4 | Cc1ccc(C)c(CC(=O)N2CCC(c3nc(C(=O)N(C)[C@H](C)c4ccccc4)cs3)CC2)c1 [compound 47] | 100 | 100 | 100 | 96 | 100 | – | – | – | – | –
5 | CC(C)(NC(=O)c1csc(C2CCN(C(=O)Cc3ccccc3Cl)CC2)n1)c1ccccc1 [compound 263] | – | – | – | – | – | 92 | 0 | 15 | 0 | 0
6 | O=C(NC1CCCc2ccccc21)c1csc(C2CCN(C(=O)Cc3ccccc3Cl)CC2)n1 (centres unmarked) [compound 266] | – | – | – | – | – | 100 | 6 | 57 | 42 | 86
7 | C[C@H](c1ccccc1)N(C)C(=O)c1csc(C2CCN(C(=O)Cc3cc(F)ccc3F)CC2)n1 [compound 44] | 97 | 57 | 98 | 21 | 0 | – | – | – | – | –
8 | C[C@H](c1ccccc1)N(C)C(=O)c1csc(C2CCN(C(=O)Cc3cc(C(F)(F)F)ccc3Cl)CC2)n1 [compound 39] | 100 | 100 | 100 | 85 | 100 | – | – | – | – | –
9 | 2-[1-[(2,5-dimethylphenyl)acetyl]-4-piperidinyl]-N-methyl-N-[(1R)-1-phenylpropyl]-4-oxazolecarboxamide [Compound 154] | 0 | 20 | 0 | 0 | 95 | – | – | – | – | –
10 | 2-[1-[(3,5-diethyl-1H-pyrazol-1-yl)acetyl]-4-piperidinyl]-N-methyl-N-[(1R)-1,2,3,4-tetrahydro-1-naphthalenyl]-4-thiazolecarboxamide [Compound 209] | 100 | 76 | 98 | 0 | 99 | – | – | – | – | –
11 | 2-[1-[[5-ethyl-3-(trifluoromethyl)-1H-pyrazol-1-yl]acetyl]-4-piperidinyl]-N-methyl-N-[(1R)-1,2,3,4-tetrahydro-1-naphthalenyl]-4-thiazolecarboxamide [Compound 208] | 100 | 95 | 100 | 0 | 99 | – | – | – | – | –
12 | N-(2,3-dihydro-2-methyl-1H-inden-1-yl)-N-methyl-2-[1-[[5-methyl-3-(trifluoromethyl)-1H-pyrazol-1-yl]acetyl]-4-piperidinyl]-4-thiazolecarboxamide [Compound 226] | 100 | 0 | 93 | 0 | 99 | – | – | – | – | –
13 | N-methyl-2-[1-[[5-methyl-3-(trifluoromethyl)-1H-pyrazol-1-yl]acetyl]-4-piperidinyl]-N-[(1R)-1,2,3,4-tetrahydro-1-naphthalenyl]-2H-1,2,3-triazole-4-carboxamide [Compound 232] | 87 | 0 | 95 | 0 | 93 | – | – | – | – | –
14 | N-methyl-1-[1-[[5-methyl-3-(trifluoromethyl)-1H-pyrazol-1-yl]acetyl]-4-piperidinyl]-N-[(1R)-1,2,3,4-tetrahydro-1-naphthalenyl]-1H-pyrazole-3-carboxamide [Compound 231] | 100 | 80 | 100 | 0 | 96 | – | – | – | – | –
15 | C[C@H](c1ccccc1)N(C)C(=O)c1csc(C2CCN(C(=O)Cc3ccc(F)c(F)c3)CC2)n1 [compound 38] | 0 | 45 | 0 | 55 | 43 | – | – | – | – | –
16 | Cc1cccc(CC(=O)N2CCC(c3nc(C(=O)N(C)[C@H](C)c4ccccc4)cs3)CC2)c1 [compound 36] | 100 | 99 | 100 | 91 | 95 | – | – | – | – | –
17 | N-(2,3-dihydro-2,2-dimethyl-1H-inden-1-yl)-N-methyl-2-[1-[[5-methyl-3-(trifluoromethyl)-1H-pyrazol-1-yl]acetyl]-4-piperidinyl]-4-thiazolecarboxamide [Compound 222] | 100 | 99 | 99 | 21 | 100 | – | – | – | – | –
18 | C[C@H](c1ccccc1)N(C)C(=O)c1csc(C2CCN(C(=O)Nc3cccc(C(F)(F)F)c3)CC2)n1 [compound 156] | 100 | – | 62 | 21 | 100 | – | – | – | – | –
